Positions of bridges follow the written chain, without caps; N, C: chain ends. Non-standard residues stand in square brackets, D forms with d. Residues, ends and D or L forms follow the SMILES beside them. *: point of attachment. hPhe(3-Cl-4-CF3) = N[C@@H](CCc1ccc(C(F)(F)F)c(Cl)c1)C(=O)O; hPhe(3-F,4-CF3) = N[C@@H](CCc1ccc(C(F)(F)F)c(F)c1)C(=O)O; hPhe(4-CF3) = N[C@@H](CCc1ccc(C(F)(F)F)cc1)C(=O)O; NMePhe(4-Cl) = CN[C@@H](Cc1ccc(Cl)cc1)C(=O)O; NMePhe(4-Me) = CN[C@@H](Cc1ccc(C)cc1)C(=O)O; NMePhe(3-F) = CN[C@@H](Cc1cccc(F)c1)C(=O)O; NMeMet(O2) = CN[C@@H](CCS(C)(=O)=O)C(=O)O; Abu(4,4,4-F3) = N[C@@H](CC(F)(F)F)C(=O)O; Phe(3-Cl) = N[C@@H](Cc1cccc(Cl)c1)C(=O)O; NMeGly(cPent) = CN[C@H](C(=O)O)C1CCCC1; Phe(3-I) = N[C@@H](Cc1cccc(I)c1)C(=O)O; NMeCha = CN[C@@H](CC1CCCCC1)C(=O)O; Azetidine(3,3-F2) = FC1(F)CN(*)C1; NMeCba = CN[C@@H](CC1CCC1)C(=O)O; NMeChg = CN[C@H](C(=O)O)C1CCCCC1; NMeF = CN[C@@H](Cc1ccccc1)C(=O)O; N(CH2CH2)2CF2 = FC1(F)CCN(*)CC1; NMeD = CN[C@@H](CC(=O)O)C(=O)O; CH2CONHtBu = CC(C)(C)NC(=O)C*; NMeL = CN[C@@H](CC(C)C)C(=O)O; NMeV = CN[C@H](C(=O)O)C(C)C; Trifluoroethyl = FC(F)(F)C*; d(β3hA) = C[C@@H](N)CC(=O)O; NMeS = CN[C@@H](CO)C(=O)O; Pip = O=C(O)[C@@H]1CCCCN1; Ac6c = NC1(C(=O)O)CCCCC1; NMeA = CN[C@@H](C)C(=O)O; Nle = CCCC[C@H](N)C(=O)O; Piperidide = C1CCN(*)CC1; Pyrrolidide = C1CCN(*)C1; Ac5c = NC1(C(=O)O)CCCC1; Aze = O=C(O)[C@@H]1CCN1; Abu = CC[C@H](N)C(=O)O; Cyclobutyl = C1CC(*)C1; NEtG = CCNCC(=O)O; βAla = NCCC(=O)O; Sar = CNCC(=O)O
target: T1, Kras and SOS1 (biotin-tagged human Kras loaded with GDP, His-tagged human SOS1) (Homo sapiens, UniProt P01116, G12D); experiment: Protein-protein interaction inhibition between Kras and SOS1 (KrasGl2D-SOS PPI) using AlphaScreen; format: binding; details: AlphaScreen; biotin-tagged human Kras loaded with GDP, His-tagged human SOS1; read-out: KRAS G12D-SOS PPI IC50
T1 construct: made in house; host or cells: E. coli (stated for Kras only)
Procedure, shortened: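 Binding between SOS1 and Kras is detected as bead-proximity luminescence: illuminate Ni-conjugated donors (680 nm), collect 520-620 nm emission from streptavidin-conjugated acceptors; Kras carries biotin and GDP loaded after purification, SOS1 carries a His tag.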

T1 sequence (P01116 1-188 isoform P01116-2 G12D): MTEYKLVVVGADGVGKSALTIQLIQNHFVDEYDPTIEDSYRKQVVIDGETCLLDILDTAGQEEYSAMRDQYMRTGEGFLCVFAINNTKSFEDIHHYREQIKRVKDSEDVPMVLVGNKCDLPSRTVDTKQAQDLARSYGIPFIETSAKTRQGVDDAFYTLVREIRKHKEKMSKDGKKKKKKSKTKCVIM

Row | Compound | IC50 [µM]
1 | CC[C@H](C)[C@@H]1NC(=O)[C@H](CC(C)C)N(C)C(=O)C[C@@H](C(=O)N2CCCCC2)N(C)C(=O)[C@H](COCC(F)(F)F)N(C)C(=O)C2(CCCC2)NC(=O)[C@@H]2CCCN2C(=O)[C@H](CCc2ccc(C(F)(F)F)c(Cl)c2)NC(=O)CN(C)C(=O)[C@H](CC2CCCCC2)N(C)C(=O)CN(C)C(=O)CN(C)C1=O [Compound 208] ([NMeL]I[Sar][Sar][NMeCha][Sar][hPhe(3-Cl-4-CF3)]P[Ac5c][NMeS](Trifluoroethyl)[NMeD]-Piperidide; lactam N-11) | 0.12
2 | CC[C@H](C)[C@@H]1NC(=O)[C@H](CC(C)C)N(C)C(=O)C[C@@H](C)NC(=O)[C@H](C(C)C)N(C)C(=O)C2(CCCC2)NC(=O)[C@@H]2CCCN2C(=O)[C@H](CCc2ccc(C(F)(F)F)c(Cl)c2)NC(=O)CN(C)C(=O)[C@H](CC2CCCCC2)N(C)C(=O)CN(C)C(=O)CN(CC)C1=O [Compound 210] (cyclo([Ac5c][NMeV][d(β3hA)][NMeL]I[NEtG][Sar][NMeCha][Sar][hPhe(3-Cl-4-CF3)]P)) | 0.08
3 | CC[C@H](C)[C@@H]1NC(=O)[C@@H]2CCCCN2C(=O)C[C@@H](C)NC(=O)[C@H](CC(C)C)N(C)C(=O)C2(CCCC2)NC(=O)[C@H](CC(C)C)N(C)C(=O)[C@H](CCc2ccc(C(F)(F)F)c(Cl)c2)NC(=O)CN(C)C(=O)[C@H](CC2CCCCC2)N(C)C(=O)CN(C)C(=O)CN(C)C1=O [Compound 213] (cyclo([Ac5c][NMeL][d(β3hA)][Pip]I[Sar][Sar][NMeCha][Sar][hPhe(3-Cl-4-CF3)][NMeL])) | 0.048
4 | CC[C@H](C)[C@@H]1NC(=O)[C@H](CC(C)C)N(C)C(=O)C[C@@H](C(=O)N(C)C)N(C)C(=O)[C@H](C(C)C)N(C)C(=O)C2(CCCC2)NC(=O)[C@H](CC(=O)N2CCC(F)(F)CC2)N(C)C(=O)[C@H](CCc2ccc(C(F)(F)F)c(Cl)c2)NC(=O)CN(C)C(=O)[C@H](CC2CCCCC2)N(C)C(=O)CN(C)C(=O)CN(C)C1=O [Compound 218] ([NMeL]I[Sar][Sar][NMeCha][Sar][hPhe(3-Cl-4-CF3)][NMeD](N(CH2CH2)2CF2)[Ac5c][NMeV][NMeD]-NMe2; lactam N-11) | 0.0019
5 | CC[C@H](C)[C@@H]1NC(=O)[C@H](CC(C)C)N(C)C(=O)C[C@@H](C(=O)N(C)C)N(C)C(=O)[C@H](C2CCCC2)N(C)C(=O)[C@H](CC(F)(F)F)NC(=O)[C@H](CC(=O)N2CC(F)(F)C2)N(C)C(=O)[C@H](CCc2ccc(C(F)(F)F)c(Cl)c2)NC(=O)CN(C)C(=O)[C@H](CC2CCCCC2)N(C)C(=O)[C@@H]2CCN2C(=O)[C@H](C)N(C)C1=O [Compound 222] ([NMeL]I[NMeA][Aze][NMeCha][Sar][hPhe(3-Cl-4-CF3)][NMeD](Azetidine(3,3-F2))[Abu(4,4,4-F3)][NMeGly(cPent)][NMeD]-NMe2; lactam N-11) | 0.02
6 | CC[C@H](C)[C@@H]1NC(=O)[C@H](C)N(C)C(=O)C[C@@H](C(=O)N2CCCC2)NC(=O)[C@H](C(C)C)N(C)C(=O)[C@H](Cc2ccccc2)N(C)C(=O)[C@H](Cc2ccccc2)NC(=O)[C@H](Cc2cccc(Cl)c2)NC(=O)CN(C)C(=O)[C@H](Cc2ccc(Cl)cc2)N(C)C(=O)CN(C)C(=O)CN(CC)C1=O [Compound 224] ([NMeA]I[NEtG][Sar][NMePhe(4-Cl)][Sar][Phe(3-Cl)]F[NMeF][NMeV]D-Pyrrolidide; lactam N-11) | 0.23
7 | CC(C)C[C@H]1C(=O)N[C@@H](COC2CCC2)C(=O)N(C)CC(=O)N(C)CC(=O)N(C)[C@@H](CC2CCCCC2)C(=O)N(C)CC(=O)N[C@@H](CCc2ccc(C(F)(F)F)c(Cl)c2)C(=O)N2CCC[C@H]2C(=O)NC2(CCCC2)C(=O)N(C)[C@@H](C2CCCCC2)C(=O)N(C)[C@H](C(=O)N2CCCCC2)CC(=O)N1C [Compound 226] ([NMeL]S(Cyclobutyl)[Sar][Sar][NMeCha][Sar][hPhe(3-Cl-4-CF3)]P[Ac5c][NMeChg][NMeD]-Piperidide; lactam N-11) | 0.0035
8 | CC[C@H](C)[C@@H]1NC(=O)[C@H](CC2CCC2)N(C)C(=O)C[C@@H](C)NC(=O)[C@H](C(C)C)N(C)C(=O)C2(CCCC2)NC(=O)[C@@H]2CCCN2C(=O)[C@H](CCc2ccc(C(F)(F)F)c(Cl)c2)NC(=O)CN(C)C(=O)[C@H](CC2CCCCC2)N(C)C(=O)CN(C)C(=O)CN(C)C1=O [Compound 230] (cyclo([Ac5c][NMeV][d(β3hA)][NMeCba]I[Sar][Sar][NMeCha][Sar][hPhe(3-Cl-4-CF3)]P)) | 0.039
9 | CC[C@H](C)[C@@H]1NC(=O)[C@H](CC(C)C)N(C)C(=O)C[C@@H](C)NC(=O)[C@H](CC(C)C)N(C)C(=O)C2(CCCCC2)NC(=O)[C@@H]2CCCN2C(=O)[C@H](CCc2ccc(C(F)(F)F)c(F)c2)NC(=O)CN(C)C(=O)[C@H](CC2CCCCC2)N(C)C(=O)CN(C)C(=O)CN(C)C1=O [Compound 231] (cyclo([Ac6c][NMeL][d(β3hA)][NMeL]I[Sar][Sar][NMeCha][Sar][hPhe(3-F,4-CF3)]P)) | 0.12
10 | CCCC[C@@H]1NC(=O)[C@H](Cc2cccc(I)c2)NC(=O)CN(C)C(=O)[C@H](Cc2ccc(C)cc2)N(C)C(=O)CN(C)C(=O)CN(C)C(=O)[C@H]([C@@H](C)CC)NC(=O)[C@H](CC(C)C)N(C)C(=O)C[C@@H](C(=O)N2CCCCC2)N(C)C(=O)[C@H](CC(C)C)NC(=O)[C@H](C)N(C)C1=O [Compound 232] ([NMeL]I[Sar][Sar][NMePhe(4-Me)][Sar][Phe(3-I)][Nle][NMeA]L[NMeD]-Piperidide; lactam N-11) | 0.02
11 | CC[C@H](C)[C@@H]1NC(=O)[C@H](C)N(C)C(=O)C[C@@H](C(=O)N2CCCC2)NC(=O)[C@H](CC(C)C)N(C)C(=O)[C@H](Cc2ccccc2)N(C)C(=O)[C@H](COCC(=O)NC(C)(C)C)NC(=O)[C@H](CCc2ccc(C(F)(F)F)cc2)NC(=O)CN(C)C(=O)[C@H](Cc2ccc(Cl)cc2)N(C)C(=O)CN(C)C(=O)CN(C)C1=O [Compound 233] ([NMeA]I[Sar][Sar][NMePhe(4-Cl)][Sar][hPhe(4-CF3)]S(CH2CONHtBu)[NMeF][NMeL]D-Pyrrolidide; lactam N-11) | 0.066
12 | CC[C@H](C)[C@@H]1NC(=O)[C@H](CC(C)C)N(C)C(=O)C[C@@H](C(=O)N2CCCCC2)N(C)C(=O)[C@H](C(C)C)N(C)C(=O)C2(CCCC2)NC(=O)[C@@H]2CCCN2C(=O)[C@H](CCc2ccc(C(F)(F)F)c(Cl)c2)NC(=O)CN(C)C(=O)[C@H](CCS(C)(=O)=O)N(C)C(=O)[C@@H]2CCN2C(=O)[C@H](C)N(C)C1=O [Compound 235] ([NMeL]I[NMeA][Aze][NMeMet(O2)][Sar][hPhe(3-Cl-4-CF3)]P[Ac5c][NMeV][NMeD]-Piperidide; lactam N-11) | 0.011
13 | CC[C@H](C)[C@@H]1NC(=O)CCNC(=O)[C@H](Cc2cccc(F)c2)N(C)C(=O)[C@H](C2CCCCC2)N(C)C(=O)C2(CCCC2)NC(=O)[C@@H]2CCCN2C(=O)[C@H](CCc2ccc(C(F)(F)F)c(Cl)c2)NC(=O)CN(C)C(=O)[C@H](CC2CCCCC2)N(C)C(=O)CN(C)C(=O)CN(C)C1=O [Compound 237] (cyclo([Ac5c][NMeChg][NMePhe(3-F)][βAla]I[Sar][Sar][NMeCha][Sar][hPhe(3-Cl-4-CF3)]P)) | 0.042
14 | CC[C@@H]1NC(=O)[C@H](CC(=O)N2CCC(F)(F)CC2)N(C)C(=O)[C@H](CCc2ccc(C(F)(F)F)c(Cl)c2)NC(=O)CN(C)C(=O)[C@H](CC2CCCCC2)N(C)C(=O)CN(C)C(=O)CN(C)C(=O)[C@H]([C@@H](C)CC)NC(=O)[C@H](CC(C)C)N(C)C(=O)C[C@@H](C(=O)N2CCCCC2)N(C)C(=O)[C@H](C(C)C)N(C)C1=O [Compound 240] ([NMeL]I[Sar][Sar][NMeCha][Sar][hPhe(3-Cl-4-CF3)][NMeD](N(CH2CH2)2CF2)[Abu][NMeV][NMeD]-Piperidide; lactam N-11) | 0.14
